Data: patent publication US9283037B2, “Laser microporator” (PANTEC BIOSOLUTIONS AG, priority 2006, dated 2016)

Test: Serum concentration of drug over time after transdermal patch application onto laser-microporated skin (FIG. 9a-9b)
Assay type: in vivo, human
Conditions: over about two hours
Description: The drug is entering the permeation surface by passive diffusion. The amount of drug entering the permeation surface is mainly determined by the permeation surface A(t) over time. Therefore, the serum concentration as a function of time can be determined by an appropriate poration of the skin 1 with an initial microporation at time TP.
FIG. 9a to 9b show the administration of the same amount of drug, for example 100 mg acetylsalicylic acid, the drug being arranged on the skin 1 as disclosed in FIG. 5e. Depending on the permeation surface A(t) as a function of time, the level of the serum concentration as well as the time period within which the drug is released, can be predescribed. In FIG. 9a the permeation surface A(t) is chosen such that the maximal serum concentration is about 25 g/l over a short period of time of about two hours. […] A further advantage is that the same amount of drug, e.g. the same patch, applied onto the skin 1, causes a different serum concentration, depending only on the function of the permeation surface A over time. This allows administering the same drug in different ways. This also allows administering the same drug in an individual way, in that the permeation surface is created depending on individual parameters of the person the drug is applied to.

Compound: CC(=O)Oc1ccccc1C(=O)O [acetylsalicylic acid]
- maximal serum concentration (FIG. 9a, 100 mg acetylsalicylic acid in patch on microporated skin, transdermal application, chosen permeation surface A(t)): about 25 g/l
- maximal serum concentration (FIG. 9b, fast application (turbo), same amount of drug (100 mg) in patch on microporated skin): about 30 g/l
